Assay results as given in patent US7772192B2, “Compositions and methods for treatment of disease with acetylated disaccharides” (The Regents of the University of California, priority 2003, dated 2010).

Key:
LLC cells = test: In vitro characterization of LLC cells (CSLEX-1 binding, lectin and PsIg flow cytometry); assay type: cell-based
Experimental: LLC cells were treated in culture for 4 days in the absence or presence of 50 μM peracetylated GlcNAcβ3Gal-NM. To quantitate sLex on the surface of LLC cells monoclonal antibody, CSLEX-1 binding to the cells was measured as described (Brown et al, J. Biol. Chem. 278: 23352-23359, 2003). […] Flow cytometry measures cell surface carbohydrate structures (Koenig et al, 1998). AAL and MAH are plant lectins. […] LLC cells have higher sialyltransferase activity than fucosyltransferase activity.

LS180 cells = test: Cytolytic assay (51Cr release) with platelets; assay type: cell-based, human
[1] = system: cell-surface sLe^a of LS180 cells; test: Flow cytometry of cell-surface sLe^a (CA19-9); assay type: cell-based, human; details: 50 μM
Experimental: Peracetylated forms of GlcNAcβ1,3Galβ-O-naphthalenemethanol (AcGnG-NM) and Galβ1,3Galβ-O-naphthalenemethanol (AcGG-NM) were prepared as described. Sarkar, et al., Carbohydr. Res., 329, 287-300, 2000. The compounds were dissolved in dimethylsulfoxide (DMSO) and added to growth medium to achieve the concentrations indicated in the figures. The supplemented medium was then exchanged for the medium in established cultures of cells in order to avoid lysis caused by adding concentrated DMSO directly to the plates. The final concentration of DMSO was adjusted to ≦0.5% (v/v). After the specified number of days, the cells were harvested with 2 mM EDTA in PBS (20 min) and used for the following experiments.
Cell Sorting. To detect the presence or absence of the relevant carbohydrate determinants, cells were stained with CSLEX-1 (anti-sLe^X, 5 μg/mL, Becton-Dickinson) or CA-19-9 ([…], 14.5 μg/mL, Chemicon) and analyzed by flow cytometry (FACScan Becton-Dickinson, Franklin Lakes, N.J.). […]
Treatment of LS180 cells with AcGnG-NM reduces cell-surface sLe^X, but not sLe^a. […] LS180 cells were grown in the presence of 50 μM AcGnG-NM, harvested with EDTA, stained with monoclonal antibodies (CSLEX-1, anti-sLe^X and CA19-9, anti-sLe^a) as indicated and analyzed by flow cytometry (Materials and Methods). […]

[2] = system: sLe^X on LS180 cell surface; test: ELISA with CSLEX-1 mAb of cell-surface sLe^X; assay type: cell-based, human; details: LS180 cells
[3] = system: LS180 cells adhering to recombinant E-selectin; test: Cell adhesion to immobilized E-selectin; assay type: cell-based, human; details: LS180 cells grown 5 days with disaccharide
Experimental: Cell adhesion to immobilized selectins. 96-well plates were coated overnight at 4° C. with recombinant E-selectin (4 μg/ml) or P-selectin (2 μg/ml) (R & D Systems) and blocked with 1% BSA/PBS. LS180 cells were grown for 5 days with various amounts of acetylated disaccharide, harvested, labeled with Calcein AM (5 μM, Molecular Probes) in DMEM/1% FBS, and allowed to settle at room temperature on selectin-coated wells (5×10^4 cells/well). Plates were then stirred at 75 rpm for 30 min (Orbit shaker, Lab-Line Instruments) followed by immersion upside-down in a vessel filled with Hank's buffered saline solution (HBSS, Sigma), which allowed non-adherent cells to fall under gravity. St John et al., J. Immunol Methods, 170: 159-166, 1994. The wells were then washed by aspiration using HBSS. LS180 cells were less adherent to P-selectin, so the immersion step was not necessary prior to washing. […] Fluorescence was measured using a 96-well fluorimeter (CytoFluor II), and the average of triplicate measurements was determined±standard error. Cell viability was judged to be >90% by Trypan blue exclusion at the end of each experiment.
Adhesion to selectins is altered in disaccharide-treated tumor cells. Treatment of LS180 cells with AcGnG-NM was not toxic to the cells up to 100 μM based on growth curves and exclusion of Trypan blue. […]

[4] = system: HAL8 human metastatic lung adenocarcinoma cells; test: Metastatic lung tumor formation in SCID mice (HAL8); assay type: in vivo
mixed oligosaccharides = test: Oligosaccharide priming, [6-3H]Gal incorporation; assay type: cell-based
Source text: A 4-deoxy modified acetylated disaccharide inhibits sLe^X expression in the absence of oligosaccharide priming.

Substance: GlcNAcβ1,3Galβ-O-naphthalenemethanol [AcGnG-NM]
- sLex expression (CSLEX-1 binding) (LLC cells; 50 μM, 4 days): reduces sLex expression
- AAL reactivity (fucose) (LLC cells; flow cytometry): reduces AAL reactivity
- sialylation (MAH) (LLC cells; flow cytometry): no effect on sialylation
- platelet protection from cytolysis (LS180 cells; cells pretreated with 50 μM for 6 days, mouse leukocytes and platelets): markedly reduced
- cytolysis in whole human blood (LS180 cells; whole human blood, 3 hr): comparable results
- cell-surface sLe^a [1]: no effect
- expression of sLe^X on the cell surface [2]: inhibited expression of sLe^X on the cell surface in a dose-dependent manner
- adhesion to recombinant E-selectin [3]: reduced the ability of LS180 cells to adhere
- lung tumor foci [4]: behaved similarly
- incorporation of [6-^3H]Gal into mixed oligosaccharides (mixed oligosaccharides): stimulates
